How the values were obtained:
[1] = target: T1, Solute carrier family 22 member 4 (Homo sapiens, UniProt Q9H015); experiment: in vitro; conditions: xenopus laevis, Xenopus laevis oocytes, probe TEA
T1 sequence (Q9H015 whole entry): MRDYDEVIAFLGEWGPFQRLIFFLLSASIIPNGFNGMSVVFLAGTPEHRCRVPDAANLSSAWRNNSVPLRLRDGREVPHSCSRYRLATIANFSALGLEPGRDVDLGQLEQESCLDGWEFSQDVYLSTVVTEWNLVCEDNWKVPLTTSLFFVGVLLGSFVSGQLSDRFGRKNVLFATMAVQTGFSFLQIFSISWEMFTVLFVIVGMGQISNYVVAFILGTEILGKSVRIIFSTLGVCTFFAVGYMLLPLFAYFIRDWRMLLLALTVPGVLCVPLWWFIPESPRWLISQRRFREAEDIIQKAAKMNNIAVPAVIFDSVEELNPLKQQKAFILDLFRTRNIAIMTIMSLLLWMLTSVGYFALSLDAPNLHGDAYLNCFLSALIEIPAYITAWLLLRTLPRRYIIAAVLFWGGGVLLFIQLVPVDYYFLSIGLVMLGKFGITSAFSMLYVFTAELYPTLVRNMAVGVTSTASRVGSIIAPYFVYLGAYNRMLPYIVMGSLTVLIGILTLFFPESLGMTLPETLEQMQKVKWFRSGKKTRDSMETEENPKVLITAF
Description: TP_TRANSPORTER: inhibition of TEA uptake (TEA: 60 uM, Nicotine: 1000 uM) in Xenopus laevis oocytes

[2] = target: T1, Solute carrier family 22 member 4; experiment: TP_TRANSPORTER: inhibition of TEA uptake (TEA: 60 uM, Quinidine: 1000 uM) in Xenopus laevis oocytes; format: functional, cell-based, Oocyte; design: scale not given: the % may be the effect or the level left; conditions: probe TEA, read-out: Activity
[3] = target: T1, Solute carrier family 22 member 4; experiment: TP_TRANSPORTER: uptake in Xenopus laevis oocytes; format: functional, cell-based; conditions: oocyte
[4] = target: T1, Solute carrier family 22 member 4; experiment: in vitro; conditions: xenopus laevis, Xenopus laevis oocytes, probe TEA; remark: listed apart in the source
Description: TP_TRANSPORTER: inhibition of TEA uptake (TEA: 60 uM, Choline: 5000 uM) in Xenopus laevis oocytes

[5] = target: T1, Solute carrier family 22 member 4; experiment: TP_TRANSPORTER: inhibition of TEA uptake (TEA: 60 uM, Pyrilamine: 1000 uM) in Xenopus laevis oocytes; format: functional, cell-based, Oocyte; design: scale not given: the % may be the effect or the level left; conditions: probe TEA, read-out: Activity
[6] = target: T1, Solute carrier family 22 member 4; experiment: TP_TRANSPORTER: inhibition of TEA uptake (TEA: 60 uM, CER: 1000 uM) in Xenopus laevis oocytes; format: functional, cell-based, Oocyte; design: scale not given: the % may be the effect or the level left; conditions: probe TEA, read-out: Activity
[7] = target: T1, Solute carrier family 22 member 4; experiment: TP_TRANSPORTER: inhibition of TEA uptake (TEA: 60 uM, D-Carnitine: 1000 uM) in Xenopus laevis oocytes; format: functional, cell-based, Oocyte; design: scale not given: the % may be the effect or the level left; conditions: probe TEA, read-out: Activity
[8] = target: T1, Solute carrier family 22 member 4; experiment: TP_TRANSPORTER: inhibition of TEA uptake (TEA: 60 uM, Procainamide: 1000 uM) in Xenopus laevis oocytes; format: functional, cell-based, Oocyte; design: scale not given: the % may be the effect or the level left; conditions: probe TEA, read-out: Activity
[9] = target: T1, Solute carrier family 22 member 4; experiment: TP_TRANSPORTER: inhibition of TEA uptake (TEA: 60 uM, Arginine: 5000 uM) in OCTN1-expressing HEK293 cells; format: functional, cell-based; conditions: hek293, 5000 µM
[10] = target: T1, Solute carrier family 22 member 4; experiment: TP_TRANSPORTER: inhibition of TEA uptake (TEA: 60 uM, PCG: 5000 uM) in Xenopus laevis oocytes; format: functional, cell-based; conditions: oocyte
[11] = target: T1, Solute carrier family 22 member 4; experiment: TP_TRANSPORTER: inhibition of TEA uptake (TEA: 60 uM, Guanidine: 5000 uM) in Xenopus laevis oocytes; format: functional, cell-based, Oocyte; design: scale not given: the % may be the effect or the level left; conditions: probe TEA, read-out: Activity
[12] = target: T1, Solute carrier family 22 member 4; experiment: TP_TRANSPORTER: inhibition of TEA uptake (TEA: 60 uM, NMN: 5000 uM) in Xenopus laevis oocytes; format: functional, cell-based; conditions: oocyte
[13] = target: T1, Solute carrier family 22 member 4; experiment: TP_TRANSPORTER: inhibition of TEA uptake (TEA: 60 uM, PAH: 5000 uM) in Xenopus laevis oocytes; format: functional, cell-based; conditions: oocyte
[14] = target: T1, Solute carrier family 22 member 4; experiment: TP_TRANSPORTER: inhibition of TEA uptake (TEA: 60 uM, Spermidine: 5000 uM) in Xenopus laevis oocytes; format: functional, cell-based; conditions: oocyte
[15] = target: T1, Solute carrier family 22 member 4; experiment: TP_TRANSPORTER: inhibition of TEA uptake (TEA: 60 uM, Quinine: 1000 uM) in Xenopus laevis oocytes; format: functional, cell-based; design: scale not given: the % may be the effect or the level left; conditions: oocyte
[16] = target: T1, Solute carrier family 22 member 4; experiment: in vitro; conditions: xenopus laevis, Xenopus laevis oocytes, probe TEA; remark: listed apart in the source
[17] = target: T1, Solute carrier family 22 member 4; experiment: TP_TRANSPORTER: inhibition of TEA uptake (TEA: 60 uM, Levofloxacin: 1000 uM) in Xenopus laevis oocytes; format: functional, cell-based; design: scale not given: the % may be the effect or the level left; conditions: oocyte
[18] = target: T1, Solute carrier family 22 member 4; experiment: TP_TRANSPORTER: inhibition of TEA uptake (TEA: 60 uM, Verapamil: 1000 uM) in Xenopus laevis oocytes; format: functional, cell-based, Oocyte; design: scale not given: the % may be the effect or the level left; conditions: probe TEA, read-out: Activity
[19] = target: T1, Solute carrier family 22 member 4; experiment: TP_TRANSPORTER: inhibition of TEA uptake (TEA: 60 uM, L-Carnitine: 1000 uM) in Xenopus laevis oocytes; format: functional, cell-based, Oocyte; design: scale not given: the % may be the effect or the level left; conditions: probe TEA, read-out: Activity
[20] = target: T1, Solute carrier family 22 member 4; experiment: TP_TRANSPORTER: inhibition of TEA uptake (TEA: 60 uM, Lysine: 5000 uM) in Xenopus laevis oocytes; format: functional, cell-based; conditions: oocyte
[21] = target: T1, Solute carrier family 22 member 4; experiment: TP_TRANSPORTER: inhibition of TEA uptake (TEA: 60 uM, OFLX: 1000 uM) in Xenopus laevis oocytes; format: functional, cell-based, Oocyte; design: scale not given: the % may be the effect or the level left; conditions: probe TEA, read-out: Activity
[22] = substrate: CC[N+](CC)(CC)CC; experiment: cells, lysate or membranes named

CN1CCC[C@H]1c1cccnc1 [NICOTINE]
activity at 1000 µM [1]: 71.6%

C=C[C@H]1C[N@@]2CC[C@H]1C[C@@H]2[C@@H](O)c1ccnc2ccc(OC)cc12 [QUINIDINE]
activity at 1000 µM [2]: 15.2%
Activity [3]: substrate [+]

C[N+](C)(C)CCO [CHOLINE]
activity at 5000 µM [4]: 73.2%

COc1ccc(CN(CCN(C)C)c2ccccn2)cc1 [PYRILAMINE]
activity at 1000 µM [5]: 0%
Activity [3]: substrate [+]

O=C(Cc1cccs1)N[C@@H]1C(=O)N2C(C(=O)[O-])=C(C[n+]3ccccc3)CS[C@H]12 [CEPHALORIDINE]
activity at 1000 µM [6]: 35.7%

C[N+](C)(C)C[C@@H](O)CC(=O)[O-] [D-CARNITINE]
activity at 1000 µM [7]: 53.9%

CCN(CC)CCNC(=O)c1ccc(N)cc1 [PROCAINAMIDE]
activity at 1000 µM [8]: 15.6%

N=C(N)NCCC[C@H](N)C(=O)O [ARGININE]
Activity [9]: is not an inhibitor [-]

CC1(C)S[C@@H]2[C@H](NC(=O)Cc3ccccc3)C(=O)N2[C@H]1C(=O)O [PENICILLIN G]
Activity [10]: is not an inhibitor [-]
Activity [3]: is not a substrate [-]

N=C(N)N [GUANIDINE]
activity at 5000 µM [11]: 89.6%

CNC(=O)c1cccnc1 [NICOTINYL METHYLAMIDE]
Activity [12]: is not an inhibitor [-]

Nc1ccc(C(=O)NCC(=O)O)cc1 [AMINOHIPPURIC ACID]
Activity [13]: is not an inhibitor [-]

NCCCCNCCCN [SPERMIDINE]
Activity [14]: is not an inhibitor [-]

C=C[C@H]1C[N@@]2CC[C@H]1C[C@H]2[C@H](O)c1ccnc2ccc(OC)cc12 [QUININE]
Activity [15]: 24.6%

Clc1cccc(Cl)c1N=C1NCCN1 [CLONIDINE]
activity at 1000 µM [16]: 70.9%

C[C@H]1COc2c(N3CCN(C)CC3)c(F)cc3c(=O)c(C(=O)O)cn1c23.C[C@H]1COc2c(N3CCN(C)CC3)c(F)cc3c(=O)c(C(=O)O)cn1c23.O [LEVOFLOXACIN]
Activity [17]: 63.6%

COc1ccc(CCN(C)CCCC(C#N)(c2ccc(OC)c(OC)c2)C(C)C)cc1OC (stereo unspecified)
activity at 1000 µM [18]: 8.8%
Activity [3]: substrate [+]

C[N+](C)(C)CC(O)CC(=O)[O-] (stereo unspecified) [CARNITINE]
activity at 1000 µM [19]: 32.5%
Activity [3]: substrate [+]

NCCCC[C@H](N)C(=O)O [LYSINE]
Activity [20]: is not an inhibitor [-]

CC1COc2c(N3CCN(C)CC3)c(F)cc3c(=O)c(C(=O)O)cn1c23 (stereo unspecified) [OFLOXACIN]
activity at 1000 µM [21]: 61.4%

B1: Solute carrier family 22 member 4 (Homo sapiens) (protein)
chain: T1 sequence (Q9H015 whole entry)
Km [22]: 436 µM
